Experimental data from ChEMBL document CHEMBL1201862, “PubChem BioAssay data set” (2004).
Each block holds one compound with its values, some of them ahead of it. The source made the active and inactive calls.

Columns and labels:
[1] = biological target: T1, Microphthalmia-associated transcription factor (Homo sapiens, UniProt O75030); assay: TRPM1 promoter luciferase signal decrease, dose response, MITF inhibitor project, cell-based, SK-MEL-5, cherry-picked, set 3 (AID 493073); assay type: functional
T1 sequence (O75030 whole entry): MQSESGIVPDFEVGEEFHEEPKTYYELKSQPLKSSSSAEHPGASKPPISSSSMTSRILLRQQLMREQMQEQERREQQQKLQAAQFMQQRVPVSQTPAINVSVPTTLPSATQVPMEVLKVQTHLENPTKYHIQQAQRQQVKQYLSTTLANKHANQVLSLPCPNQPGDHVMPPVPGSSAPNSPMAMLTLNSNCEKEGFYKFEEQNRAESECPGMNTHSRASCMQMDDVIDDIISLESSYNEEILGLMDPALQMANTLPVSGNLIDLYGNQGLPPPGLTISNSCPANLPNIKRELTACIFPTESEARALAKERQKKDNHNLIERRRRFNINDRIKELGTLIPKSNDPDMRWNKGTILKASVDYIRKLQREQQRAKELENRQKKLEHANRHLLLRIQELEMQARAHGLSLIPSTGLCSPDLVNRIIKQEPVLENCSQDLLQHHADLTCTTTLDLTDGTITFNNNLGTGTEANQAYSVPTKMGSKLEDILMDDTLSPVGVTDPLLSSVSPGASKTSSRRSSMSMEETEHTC

[2] = P. falciparum late gametocyte killing, dose response, luminescence (AID 1117278); assay type: functional, cell-based;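 further: gametocytes exposed to compound for 24 hours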
[3] = Jurkat T cell cytotoxicity, dose response, cytotoxicity control for P. falciparum gametocyte viability project, luminescence (AID 1117277); assay type: functional, cell-based;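 further: potency reflects loss of cellular ATP meaning fewer viable cells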
INS1 = assay: beta cell apoptosis inhibitors, cytokine rescue, dose response, luminescence, retest (AID 449756); assay type: functional, cell-based; conditions: Rattus norvegicus;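 further: cell death triggered by IL-1 beta plus TNF-alpha plus IFN-gamma mixture; protective hits raise ATP signal compared with cytokine alone wells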
Protein Wnt-3a = Protein Wnt-3a (Mus musculus, UniProt P27467); assay: Wnt3a-driven reporter signaling inhibition, dose response, selectivity assay for Gli-SUFU antagonist project, Wnt-LIGHT cells, luminescence (AID 651570); assay type: functional; conditions: read-out: IC50_Mean;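 further: Wnt-LIGHT reporter cells stimulated with conditioned medium from Wnt3a-producing cells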
Chain of Protein Wnt-3a (P27467 whole entry): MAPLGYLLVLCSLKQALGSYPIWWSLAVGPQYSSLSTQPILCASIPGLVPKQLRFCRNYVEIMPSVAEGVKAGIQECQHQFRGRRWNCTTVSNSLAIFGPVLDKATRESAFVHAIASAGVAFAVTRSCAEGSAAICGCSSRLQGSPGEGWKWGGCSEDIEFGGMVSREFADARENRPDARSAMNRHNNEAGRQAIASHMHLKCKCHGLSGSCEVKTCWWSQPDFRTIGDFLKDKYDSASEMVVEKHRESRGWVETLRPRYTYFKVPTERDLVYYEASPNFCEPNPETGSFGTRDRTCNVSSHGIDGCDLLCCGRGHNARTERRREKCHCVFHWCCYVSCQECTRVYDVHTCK

[4] = concentration-dependent intrinsic compound fluorescence, S. cerevisiae AD/pABC3, flow cytometry, Cherry Pick1 hits, artefact control for antifungal efflux pump inhibitor project, dose response (AID 588620); assay type: functional
Candida albicans = assay: single-agent growth inhibition of C. albicans, dose response, counter-screen for antifungal drug resistance project, C. albicans CaCi-2, dry powder (AID 488802); assay type: functional, organism-based
[5] = biological target: T2, Sentrin-specific protease 8 (Homo sapiens, UniProt Q96LD8); assay: SENP8 protease inhibitors, SAR follow-up, biochemical, luminescence, set 2 (AID 588601); assay type: functional
T2 sequence (Q96LD8 whole entry): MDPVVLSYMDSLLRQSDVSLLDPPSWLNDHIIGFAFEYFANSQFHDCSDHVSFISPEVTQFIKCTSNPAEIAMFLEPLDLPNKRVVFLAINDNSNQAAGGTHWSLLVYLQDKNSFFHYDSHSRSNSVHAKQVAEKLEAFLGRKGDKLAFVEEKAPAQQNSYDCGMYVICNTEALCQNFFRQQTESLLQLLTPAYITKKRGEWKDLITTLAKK

[6] = biological target: T3, Sentrin-specific protease 6 (Homo sapiens, UniProt Q9GZR1); assay: SENP6 protease inhibitors, SAR follow-up, biochemical, luminescence, set 2 (AID 588598); assay type: functional
T3 sequence (Q9GZR1 whole entry): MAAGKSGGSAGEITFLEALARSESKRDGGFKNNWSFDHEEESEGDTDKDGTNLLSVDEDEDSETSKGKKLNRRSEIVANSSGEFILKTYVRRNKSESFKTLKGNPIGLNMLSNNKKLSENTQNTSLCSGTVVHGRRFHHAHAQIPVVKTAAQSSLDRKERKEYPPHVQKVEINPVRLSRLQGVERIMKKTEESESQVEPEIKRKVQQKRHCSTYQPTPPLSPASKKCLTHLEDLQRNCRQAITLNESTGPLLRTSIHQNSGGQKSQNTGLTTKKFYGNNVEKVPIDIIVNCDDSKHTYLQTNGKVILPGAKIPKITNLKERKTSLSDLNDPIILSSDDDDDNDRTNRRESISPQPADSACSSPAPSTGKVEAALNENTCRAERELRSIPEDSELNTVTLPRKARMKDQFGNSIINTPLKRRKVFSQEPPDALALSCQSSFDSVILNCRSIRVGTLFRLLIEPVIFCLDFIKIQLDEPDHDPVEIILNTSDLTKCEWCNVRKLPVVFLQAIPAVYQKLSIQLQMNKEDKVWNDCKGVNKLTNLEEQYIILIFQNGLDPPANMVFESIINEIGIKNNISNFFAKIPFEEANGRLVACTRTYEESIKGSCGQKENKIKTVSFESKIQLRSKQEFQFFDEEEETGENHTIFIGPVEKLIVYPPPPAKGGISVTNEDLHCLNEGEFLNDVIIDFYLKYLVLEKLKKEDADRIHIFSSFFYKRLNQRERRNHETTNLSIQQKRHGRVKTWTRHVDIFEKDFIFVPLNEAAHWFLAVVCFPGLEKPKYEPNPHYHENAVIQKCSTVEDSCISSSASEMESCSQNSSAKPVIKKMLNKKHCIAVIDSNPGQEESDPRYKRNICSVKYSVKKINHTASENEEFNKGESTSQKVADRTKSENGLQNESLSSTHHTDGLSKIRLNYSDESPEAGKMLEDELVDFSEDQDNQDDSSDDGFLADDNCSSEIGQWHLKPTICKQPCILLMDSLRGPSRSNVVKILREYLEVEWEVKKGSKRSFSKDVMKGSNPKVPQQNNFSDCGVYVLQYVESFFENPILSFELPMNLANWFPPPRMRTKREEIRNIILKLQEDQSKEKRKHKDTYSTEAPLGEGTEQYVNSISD

[7] = biological target: T4, Sentrin-specific protease 7 (Homo sapiens, UniProt Q9BQF6); assay: SENP7 protease inhibitors, SAR follow-up, biochemical, luminescence, set 2 (AID 588600); assay type: functional
T4 sequence (Q9BQF6 whole entry): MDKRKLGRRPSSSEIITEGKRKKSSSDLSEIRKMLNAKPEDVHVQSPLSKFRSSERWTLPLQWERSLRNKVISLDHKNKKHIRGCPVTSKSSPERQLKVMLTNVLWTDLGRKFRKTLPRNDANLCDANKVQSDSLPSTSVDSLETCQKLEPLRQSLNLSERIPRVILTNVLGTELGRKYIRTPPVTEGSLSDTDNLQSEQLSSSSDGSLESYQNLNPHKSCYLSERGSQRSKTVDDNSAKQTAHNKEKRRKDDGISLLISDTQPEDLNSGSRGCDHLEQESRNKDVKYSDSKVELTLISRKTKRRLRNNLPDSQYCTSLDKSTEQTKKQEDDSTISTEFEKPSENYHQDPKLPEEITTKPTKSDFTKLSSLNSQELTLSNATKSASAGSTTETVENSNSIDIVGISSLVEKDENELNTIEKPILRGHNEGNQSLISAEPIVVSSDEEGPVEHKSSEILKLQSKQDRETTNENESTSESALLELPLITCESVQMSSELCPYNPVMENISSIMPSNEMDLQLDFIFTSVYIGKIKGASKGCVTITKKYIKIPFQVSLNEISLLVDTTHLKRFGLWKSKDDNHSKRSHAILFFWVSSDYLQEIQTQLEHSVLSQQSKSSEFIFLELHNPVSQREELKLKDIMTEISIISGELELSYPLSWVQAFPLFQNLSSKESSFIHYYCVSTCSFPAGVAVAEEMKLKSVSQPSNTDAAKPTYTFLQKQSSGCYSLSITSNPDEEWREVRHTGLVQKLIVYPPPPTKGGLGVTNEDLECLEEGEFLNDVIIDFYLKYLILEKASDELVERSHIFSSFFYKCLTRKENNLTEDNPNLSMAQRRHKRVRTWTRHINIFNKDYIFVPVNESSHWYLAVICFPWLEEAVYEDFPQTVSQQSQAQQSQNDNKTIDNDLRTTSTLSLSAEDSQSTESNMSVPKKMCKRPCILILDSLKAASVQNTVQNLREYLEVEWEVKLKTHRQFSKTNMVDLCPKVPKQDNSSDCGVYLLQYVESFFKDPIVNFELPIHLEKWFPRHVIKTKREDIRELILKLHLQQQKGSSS

Caspase-3 = biological target: T5, Caspase-3 (Homo sapiens, UniProt P42574); assay: caspase-3 inhibitors as off-family protease, SAR follow-up, selectivity assay for SENP protease inhibitor project, biochemical, luminescence, set 2 (AID 588599); assay type: functional
T5 sequence (P42574 whole entry): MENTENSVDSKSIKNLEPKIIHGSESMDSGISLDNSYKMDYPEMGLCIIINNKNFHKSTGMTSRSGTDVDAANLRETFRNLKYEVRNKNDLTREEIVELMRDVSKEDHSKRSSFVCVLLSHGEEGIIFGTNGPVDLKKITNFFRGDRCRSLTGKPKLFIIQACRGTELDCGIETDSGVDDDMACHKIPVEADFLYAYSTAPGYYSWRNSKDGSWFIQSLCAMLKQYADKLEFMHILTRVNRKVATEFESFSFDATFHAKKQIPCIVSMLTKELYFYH

Compound: Cc1ccc(-c2c[n+](Cc3ccc(Cl)c(Cl)c3)c3n2CCC3)cc1
- AC50 [1]: 3.74 µM (active)
- IC50 [2]: > 109 µM (inactive)
- IC50 [3]: 43.6 µM (inactive)
- AC50 (INS1): 3.4 µM (active)
- IC50 (Protein Wnt-3a): 24.5 µM (inactive)
- EC50 [4]: 43.6 µM (active)

Compound: Cc1nn(S(C)(=O)=O)c2ccccc12
- AC50 (Candida albicans): 46.7 µM (active)

- IC50 [6]: > 99 µM (inactive)
- IC50 [7]: > 99 µM (inactive)
- IC50 (Caspase-3): > 99 µM (inactive)
Compound: O=C(Nc1nc2ccc(SC(F)F)cc2s1)c1cn(-c2ccccc2)nc1-c1ccc(Cl)cc1
- IC50 [5]: > 99 µM (inactive)
